Measurements published in publication PMC11769049, “Phytomedicine Potential of Oroxylum indicum Root and Its Constituents: Targeting Alzheimer’s Disease” (Plants, 2025).

Experiments:
[1] = target: T1, Electric eel-type VI-S AChE (Electrophorus electricus, UniProt O42275); test: AChE inhibition, modified Ellman's method; format: biochemical
T1 construct: purchased
Procedure: The anti-acetylcholinesterase activity of the extract of O. indicum root and its three constituent compounds was evaluated using a modified Ellman’s method. A microplate-based assay was conducted in triplicate, comprising (i) 25 µL of 1 mM acetylthiocholine iodide, (ii) 50 µL of 0.1 M phosphate buffer (PBS), (iii) 25 µL of the sample, and (iv) 125 µL of 1 mM dithiobisnitrobenzoic acid. Electric eel-type VI-S AChE (0.2 Units/mL) was added. The control group lacked both the sample and enzyme. […] Tacrine served as a reference standard. Enzymatic activity and percent inhibition were assessed. The following equation was used to determine inhibitory activity:Percentage inhibition = [(AE − As)/(AE − AC)] × 100 where AE, AC, and As represent the enzymatic activities of the enzyme, control, and sample, respectively. The AChE inhibitory activity of the samples was expressed as the half-maximal inhibitory concentration (IC50).

[2] = tested on: Bax; test: Western blot of Bax in H2O2-exposed SH-SY5Y cells; format: cell-based, Human; settings: 250 μM H2O2, pretreatment with extract (1, 3, 10 µg/mL) or baicalein (1, 3, 10 µM)
Procedure: (§1) Neuronal cells were pretreated with the extract (1, 3, and 10 µg/mL) or baicalein (1, 3, and 10 µM) for 30 min, followed by induction of oxidative stress with hydrogen peroxide (H2O2). […] NAC (100 µg/mL) was used for the standard substance. For the experiment, SH-SY5Y cells (1 × 10^5 cells/well) were seeded onto a 6-well plate and cultured for 2 days. […] After washing unabsorbed chemicals, the cells were exposed to 250 μM H2O2 for 5 min. Treated cells were lysed with an ice-cold lysis solution. The supernatant was obtained after centrifuging the lysate at 13,500 rpm for 10 min at 4 °C. The Bradford test was used to determine the total protein content. Proteins were separated on a polyvinylidene difluoride membrane using SDS-PAGE. After blocking with BlockAce, the membrane was probed with primary antibodies against BAX, cleaved caspase-3, pTau, and BACE1. Secondary antibodies coupled with horseradish peroxidase were used for detection, followed by enhanced chemiluminescence.

[3] = tested on: cleaved caspase-3; test: Western blot of cleaved caspase-3 in H2O2-exposed SH-SY5Y cells; format: cell-based, Human; settings: 250 μM H2O2, pretreatment with extract (1, 3, 10 µg/mL) or baicalein (1, 3, 10 µM)
Procedure: as §1

[4] = tested on: BACE1; test: Western blot of BACE1 in H2O2-exposed SH-SY5Y cells; format: cell-based, Human; settings: 250 μM H2O2, pretreatment with extract (1, 3, 10 µg/mL) or baicalein (1, 3, 10 µM)
Procedure: as §1

[5] = tested on: phosphorylated tau protein; test: Western blot of phosphorylated tau in H2O2-exposed SH-SY5Y cells; format: cell-based, Human; settings: 250 μM H2O2, pretreatment with extract (1, 3, 10 µg/mL) or baicalein (1, 3, 10 µM)
Procedure: as §1

[6] = DPPH radical scavenging method; settings: for IC50: read-out: IC50 DPPH, mean ± SD (n = 3)
Procedure: After 30 min incubation period, the absorbance at 520 nm was measured using a microplate reader. The DPPH radical scavenging ability was calculated according to the following equation:Percentage inhibition = [(ADPPH − Asample)/(ADPPH − Acontrol)] × 100 where ADPPH, Asample, and Acontrol are the absorbance values of DPPH solution, sample, and control, respectively.

[7] = target: Aβ1–42 (Homo sapiens, UniProt P05067); test: Aβ1–42 aggregation inhibition, thioflavin-T (ThT) fluorescence assay
Chain of Aβ1–42 (P05067 672-713 limits assumed): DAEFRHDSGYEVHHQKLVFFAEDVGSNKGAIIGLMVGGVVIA
Procedure: The aggregation of Aβ1–42 was monitored using a thioflavin-T (ThT) fluorescence assay [58]. […] Following a 48 h incubation period, the mixtures were treated with 175 µL of 5 µM ThT solution prepared in a glycine/NaOH buffer at pH 8.5.

T1 sequence (O42275 24-633): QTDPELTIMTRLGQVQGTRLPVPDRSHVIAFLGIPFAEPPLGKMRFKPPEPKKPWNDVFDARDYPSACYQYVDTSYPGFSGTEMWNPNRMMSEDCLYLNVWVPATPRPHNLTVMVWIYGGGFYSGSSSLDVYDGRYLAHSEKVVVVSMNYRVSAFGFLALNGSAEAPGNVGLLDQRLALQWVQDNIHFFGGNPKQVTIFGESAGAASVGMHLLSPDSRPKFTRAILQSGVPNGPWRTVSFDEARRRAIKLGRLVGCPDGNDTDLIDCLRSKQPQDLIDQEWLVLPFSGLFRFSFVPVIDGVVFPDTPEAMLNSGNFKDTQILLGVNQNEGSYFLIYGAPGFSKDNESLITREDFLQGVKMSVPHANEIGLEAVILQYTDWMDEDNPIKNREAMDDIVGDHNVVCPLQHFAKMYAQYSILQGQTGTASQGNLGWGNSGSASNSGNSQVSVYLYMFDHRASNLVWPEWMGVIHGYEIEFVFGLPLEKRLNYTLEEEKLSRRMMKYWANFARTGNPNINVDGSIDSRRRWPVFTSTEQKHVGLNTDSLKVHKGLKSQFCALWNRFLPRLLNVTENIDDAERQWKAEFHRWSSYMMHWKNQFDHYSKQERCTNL

Compound | IC50 [1] | expression of pro-apoptotic protein Bax [2] | expression of cleaved caspase-3 [3] | BACE1 expression (H2O2-induced increase) [4] | levels of phosphorylated tau protein [5] | IC50 [6] | IC50 [7] | DPPH radical scavenging activity ([6]; up to 100 µg/mL)
O=c1cc(-c2ccccc2)oc2cc(O)c(O)c(O)c12 [Baicalein] | 159 ± 1.15 µM | significantly downregulated | significantly downregulated | effectively mitigated this increase | significantly reduced | 19.08 ± 0.17 µM |  | 
O=c1cc(-c2ccccc2)oc2cc(O)cc(O)c12 [Chrysin] | 45.9 ± 1.32 µM |  |  |  |  | 63.3 ± 0.89 µM | 5.86 ± 0.16 µM | 
COc1c(O)cc2oc(-c3ccccc3)cc(=O)c2c1O [Oroxylin A] | 86.9 ± 1.85 µM |  |  |  |  | > 100 µM | 8.19 ± 0.28 µM | minimal DPPH radical scavenging activity
Cc1c(C)c2c(c(C)c1O)CCC(C)(C(=O)O)O2 (centres unmarked) [Trolox, reference compound] |  |  |  |  |  | 29.8 ± 1.59 µM |  | 
